Measured values from patent publication US20230310428A1, “EGFR INHIBITOR AND PREPARATION METHOD AND USE THEREOF” (HONGYUN BIOTECH CO., LTD., priority 2020, published 2023).
Where two headings read alike, the source gives them in different places.

Tests used:
Assay in all cases: Growth inhibitory activity of compounds on BaF3 cell lines stably transfected with kinase (MTS, 48 h)
Type in all cases: cell-based
[1] = biological target: T1, various mutants of kinase EGFR (BaF3 cell lines stably transfected with kinase) (Homo sapiens, UniProt P00533, L858R/T790M)
T1 construct: expressed in transfected cells; host or cells: BaF3
How it was run: (§1)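 Transfected cells received compound (max 10 µM, 8 concentrations) for 48 h; MTS readout at 490 nm yielded IC50.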

[2] = biological target: T2, various mutants of kinase EGFR (BaF3 cell lines stably transfected with kinase) (Homo sapiens, UniProt P00533, C797S/L858R/T790M)
T2 construct: expressed in transfected cells; host or cells: BaF3
How it was run: as §1

[3] = biological target: T3, various mutants of kinase EGFR (BaF3 cell lines stably transfected with kinase) (Homo sapiens, UniProt P00533, L858R)
T3 construct: expressed in transfected cells; host or cells: BaF3
How it was run: as §1

[4] = biological target: T4, various mutants of kinase EGFR (BaF3 cell lines stably transfected with kinase) (Homo sapiens, UniProt P00533, T790M/C797S, form not given)
T4 construct: other: BaF3 cells stably transfected with EGFR Δ19Del/T790M/C797S; MTS, 48; other: BaF3 cell line stably transfected with EGFR Δ19Del/T790M/C7
How it was run: as §1

[5] = biological target: T5, various mutants of kinase EGFR (BaF3 cell lines stably transfected with kinase) (Homo sapiens, UniProt P00533)
T5 construct: other: BaF3 cells stably transfected with EGFR Δ19Del; MTS, 48 h; other: BaF3 cell line stably transfected with EGFR Δ19Del
How it was run: as §1

[6] = biological target: T6, various mutants of kinase EGFR (BaF3 cell lines stably transfected with kinase) (Homo sapiens, UniProt P00533, T790M, form not given)
T6 construct: other: BaF3 cells stably transfected with EGFR Δ19Del/T790M; MTS, 48 h; other: BaF3 cell line stably transfected with EGFR Δ19Del/T790M; MTS, 48
How it was run: as §1

[7] = BaF3 cell line stably transfected with EGFR L858R/T790M, read-out: L858R/ T790M growth inhibitory activity IC50
[8] = BaF3 cell line stably transfected with EGFR L858R/T790M/C797S, read-out: L858R/T790M/ C797S growth inhibitory activity IC50
[9] = BaF3 cell line stably transfected with EGFR L858R, read-out: L858R growth inhibitory activity IC50
[10] = BaF3 cell line stably transfected with EGFR Δ19Del/T790M/C797S, read-out: Δ19Del/T790M/ C797S growth inhibitory activity IC50
[11] = BaF3 cell line stably transfected with EGFR Δ19Del, read-out: Δ19Del growth inhibitory activity IC50
[12] = BaF3 cell line stably transfected with EGFR Δ19Del/T790M, read-out: Δ19Del/ T790M growth inhibitory activity IC50
[13] = BaF3 cells stably transfected with EGFR L858R/T790M, read-out: IC50, growth inhibition, L858R/T790M
[14] = BaF3 cells stably transfected with EGFR L858R/T790M/C797S, read-out: IC50, growth inhibition, L858R/T790M/C797S
[15] = BaF3 cells stably transfected with EGFR L858R, read-out: IC50, growth inhibition, L858R
[16] = BaF3 cells stably transfected with EGFR Δ19Del/T790M/C797S, read-out: IC50, growth inhibition, Δ19Del/T790M/C797S
[17] = BaF3 cells stably transfected with EGFR Δ19Del, read-out: IC50, growth inhibition, Δ19Del
[18] = BaF3 cells stably transfected with EGFR Δ19Del/T790M, read-out: IC50, growth inhibition, Δ19Del/T790M

T6 sequence (P00533 with tags, fused parts or gaps DEL746-750/T790M, form open): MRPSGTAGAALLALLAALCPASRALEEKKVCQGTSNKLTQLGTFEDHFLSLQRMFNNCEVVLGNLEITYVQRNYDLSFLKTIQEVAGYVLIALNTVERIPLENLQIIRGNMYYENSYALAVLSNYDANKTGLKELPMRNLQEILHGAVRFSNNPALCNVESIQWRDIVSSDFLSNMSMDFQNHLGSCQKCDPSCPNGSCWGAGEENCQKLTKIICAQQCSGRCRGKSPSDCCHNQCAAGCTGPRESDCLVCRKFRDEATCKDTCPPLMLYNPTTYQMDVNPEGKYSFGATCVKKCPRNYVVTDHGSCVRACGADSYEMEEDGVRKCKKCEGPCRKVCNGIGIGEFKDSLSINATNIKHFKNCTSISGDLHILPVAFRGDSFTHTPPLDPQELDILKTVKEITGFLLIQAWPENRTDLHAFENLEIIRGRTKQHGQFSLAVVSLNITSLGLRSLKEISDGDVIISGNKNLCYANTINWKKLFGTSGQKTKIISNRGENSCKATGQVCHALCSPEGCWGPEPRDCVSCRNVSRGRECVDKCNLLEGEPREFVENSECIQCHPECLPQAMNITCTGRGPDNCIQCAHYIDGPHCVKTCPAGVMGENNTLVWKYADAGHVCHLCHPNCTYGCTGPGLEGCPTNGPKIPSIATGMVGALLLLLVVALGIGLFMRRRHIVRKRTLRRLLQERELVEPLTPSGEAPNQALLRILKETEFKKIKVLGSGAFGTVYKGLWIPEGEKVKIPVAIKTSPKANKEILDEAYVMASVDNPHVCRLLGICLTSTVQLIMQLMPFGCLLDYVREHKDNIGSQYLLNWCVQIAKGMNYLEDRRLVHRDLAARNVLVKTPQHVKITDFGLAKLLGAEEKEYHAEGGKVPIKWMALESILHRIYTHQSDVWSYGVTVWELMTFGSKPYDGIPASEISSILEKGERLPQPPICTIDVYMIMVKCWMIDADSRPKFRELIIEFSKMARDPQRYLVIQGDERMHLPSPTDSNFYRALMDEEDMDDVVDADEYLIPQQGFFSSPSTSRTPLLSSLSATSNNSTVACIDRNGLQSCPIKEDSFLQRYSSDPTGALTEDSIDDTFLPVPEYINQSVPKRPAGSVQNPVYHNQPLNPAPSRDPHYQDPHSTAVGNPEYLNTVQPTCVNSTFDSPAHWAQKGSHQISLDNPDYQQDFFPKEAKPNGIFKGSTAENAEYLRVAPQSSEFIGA
T4 sequence (P00533 with tags, fused parts or gaps DEL746-750/T790M/C797S, form open): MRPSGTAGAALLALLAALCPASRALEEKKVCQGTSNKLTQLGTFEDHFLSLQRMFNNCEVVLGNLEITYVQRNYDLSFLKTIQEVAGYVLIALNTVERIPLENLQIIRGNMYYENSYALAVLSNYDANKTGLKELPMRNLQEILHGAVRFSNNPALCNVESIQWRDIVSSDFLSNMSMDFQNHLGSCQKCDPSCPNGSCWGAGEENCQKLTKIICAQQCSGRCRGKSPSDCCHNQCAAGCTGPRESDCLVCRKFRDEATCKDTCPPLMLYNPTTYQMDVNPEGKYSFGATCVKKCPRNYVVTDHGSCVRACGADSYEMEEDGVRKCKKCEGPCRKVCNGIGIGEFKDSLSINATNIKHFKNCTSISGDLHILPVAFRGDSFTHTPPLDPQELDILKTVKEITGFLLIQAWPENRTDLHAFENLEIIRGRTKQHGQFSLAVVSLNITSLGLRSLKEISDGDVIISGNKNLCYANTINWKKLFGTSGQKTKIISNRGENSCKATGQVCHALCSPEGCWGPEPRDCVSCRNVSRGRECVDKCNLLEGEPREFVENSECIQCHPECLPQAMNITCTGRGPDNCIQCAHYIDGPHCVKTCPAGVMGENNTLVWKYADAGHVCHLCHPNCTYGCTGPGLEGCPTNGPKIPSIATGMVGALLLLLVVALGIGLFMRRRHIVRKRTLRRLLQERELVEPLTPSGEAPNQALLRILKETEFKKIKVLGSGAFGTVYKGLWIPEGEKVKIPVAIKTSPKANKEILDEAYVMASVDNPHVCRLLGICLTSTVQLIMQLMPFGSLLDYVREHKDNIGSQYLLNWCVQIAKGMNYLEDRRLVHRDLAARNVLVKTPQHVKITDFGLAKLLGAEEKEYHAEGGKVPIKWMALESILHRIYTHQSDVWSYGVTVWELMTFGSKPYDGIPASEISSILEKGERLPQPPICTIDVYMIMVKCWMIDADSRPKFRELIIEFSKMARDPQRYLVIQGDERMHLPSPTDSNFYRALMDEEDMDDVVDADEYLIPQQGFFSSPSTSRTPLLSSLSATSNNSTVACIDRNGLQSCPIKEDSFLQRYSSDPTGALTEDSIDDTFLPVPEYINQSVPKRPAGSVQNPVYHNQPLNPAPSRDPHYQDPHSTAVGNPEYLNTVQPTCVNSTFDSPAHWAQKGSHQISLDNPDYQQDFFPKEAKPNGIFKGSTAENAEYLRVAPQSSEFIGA
T2 sequence (P00533 25-1210 T790M/C797S/L858R): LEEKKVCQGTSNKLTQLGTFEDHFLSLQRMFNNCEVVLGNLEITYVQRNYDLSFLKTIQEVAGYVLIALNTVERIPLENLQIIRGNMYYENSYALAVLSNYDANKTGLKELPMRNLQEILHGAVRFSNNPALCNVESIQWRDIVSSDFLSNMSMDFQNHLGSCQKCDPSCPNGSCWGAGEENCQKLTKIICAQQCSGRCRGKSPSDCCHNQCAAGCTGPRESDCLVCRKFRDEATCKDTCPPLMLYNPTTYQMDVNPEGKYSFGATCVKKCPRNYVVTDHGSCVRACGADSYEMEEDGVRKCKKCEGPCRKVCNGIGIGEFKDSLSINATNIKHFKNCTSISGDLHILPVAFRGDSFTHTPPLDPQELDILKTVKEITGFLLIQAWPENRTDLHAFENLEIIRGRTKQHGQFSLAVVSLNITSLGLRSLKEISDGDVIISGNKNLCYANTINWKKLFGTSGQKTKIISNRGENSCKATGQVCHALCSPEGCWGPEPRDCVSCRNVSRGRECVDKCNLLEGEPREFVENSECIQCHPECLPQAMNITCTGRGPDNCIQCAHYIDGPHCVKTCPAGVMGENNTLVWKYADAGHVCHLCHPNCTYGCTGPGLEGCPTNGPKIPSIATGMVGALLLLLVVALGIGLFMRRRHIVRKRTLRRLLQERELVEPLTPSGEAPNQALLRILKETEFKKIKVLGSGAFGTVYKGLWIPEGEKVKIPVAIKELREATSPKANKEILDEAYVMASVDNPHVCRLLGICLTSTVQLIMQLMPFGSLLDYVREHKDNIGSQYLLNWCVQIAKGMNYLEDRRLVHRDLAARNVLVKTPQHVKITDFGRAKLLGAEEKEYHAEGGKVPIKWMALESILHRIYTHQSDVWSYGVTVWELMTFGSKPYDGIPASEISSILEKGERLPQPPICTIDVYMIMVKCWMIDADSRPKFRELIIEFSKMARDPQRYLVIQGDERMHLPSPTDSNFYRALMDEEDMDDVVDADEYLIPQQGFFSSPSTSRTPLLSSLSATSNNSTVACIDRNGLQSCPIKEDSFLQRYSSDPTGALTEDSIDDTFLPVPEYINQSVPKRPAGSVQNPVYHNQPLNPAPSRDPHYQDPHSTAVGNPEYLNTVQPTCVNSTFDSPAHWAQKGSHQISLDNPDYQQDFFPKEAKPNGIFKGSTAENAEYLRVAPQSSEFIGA
T5 sequence (P00533 with tags, fused parts or gaps DEL746-750): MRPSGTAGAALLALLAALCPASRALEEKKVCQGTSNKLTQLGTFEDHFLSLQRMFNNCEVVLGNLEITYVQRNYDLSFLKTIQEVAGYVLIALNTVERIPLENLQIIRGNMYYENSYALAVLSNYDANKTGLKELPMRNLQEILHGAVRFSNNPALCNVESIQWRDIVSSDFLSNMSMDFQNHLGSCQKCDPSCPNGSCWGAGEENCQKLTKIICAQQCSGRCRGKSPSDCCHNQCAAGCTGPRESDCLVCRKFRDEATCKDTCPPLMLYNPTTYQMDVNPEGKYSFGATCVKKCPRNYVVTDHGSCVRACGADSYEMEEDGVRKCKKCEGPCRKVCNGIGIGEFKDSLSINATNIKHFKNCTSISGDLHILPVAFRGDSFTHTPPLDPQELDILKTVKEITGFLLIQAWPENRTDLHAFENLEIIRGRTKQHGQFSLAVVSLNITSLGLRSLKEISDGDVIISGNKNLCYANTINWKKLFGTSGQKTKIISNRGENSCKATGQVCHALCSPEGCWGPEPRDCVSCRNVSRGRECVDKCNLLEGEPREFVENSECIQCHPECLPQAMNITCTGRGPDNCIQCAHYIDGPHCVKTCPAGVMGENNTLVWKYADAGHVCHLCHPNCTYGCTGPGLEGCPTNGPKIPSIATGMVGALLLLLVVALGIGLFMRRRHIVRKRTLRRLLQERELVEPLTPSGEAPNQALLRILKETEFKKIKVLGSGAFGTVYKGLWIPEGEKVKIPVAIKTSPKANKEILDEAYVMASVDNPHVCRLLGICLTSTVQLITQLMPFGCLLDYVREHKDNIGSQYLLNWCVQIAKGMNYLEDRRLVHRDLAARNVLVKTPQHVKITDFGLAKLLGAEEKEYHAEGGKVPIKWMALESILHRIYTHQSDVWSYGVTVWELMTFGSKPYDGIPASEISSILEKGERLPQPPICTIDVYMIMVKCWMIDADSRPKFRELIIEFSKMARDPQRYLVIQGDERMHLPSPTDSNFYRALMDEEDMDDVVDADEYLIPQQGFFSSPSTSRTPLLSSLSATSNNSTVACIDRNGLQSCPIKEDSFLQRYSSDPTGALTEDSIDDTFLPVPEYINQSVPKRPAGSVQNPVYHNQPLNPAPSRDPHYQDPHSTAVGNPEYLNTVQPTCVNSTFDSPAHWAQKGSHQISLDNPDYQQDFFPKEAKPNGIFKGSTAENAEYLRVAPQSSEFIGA

Row | Structure (SMILES) | IC50 [1, 7] [nM] | IC50 [2, 8] [nM] | IC50 [3, 9] [nM] | IC50 [4, 10] [nM] | IC50 [5, 11] [nM] | IC50 [6, 12] [nM] | IC50 [1, 13] [nM] | IC50 [2, 14] [nM] | IC50 [3, 15] [nM] | IC50 [4, 16] [nM] | IC50 [5, 17] [nM] | IC50 [6, 18] [nM]
1 | CN1CCN(C2CCN(c3ccc(Nc4ncc(Cl)c(Nc5ccc6nccnc6c5N(C)S(C)(=O)=O)n4)c(OC(F)(F)F)c3)CC2)CC1 [Compound I-166] | – | – | – | – | – | – | 50 to 500 | 50 to 500 | 50 to 500 | ≤ 50 | 50 to 500 | 50 to 500
2 | CCc1cc(Nc2ncc(Br)c(Nc3ccc4nccnc4c3N(C)S(=O)(=O)CC)n2)c(OC(F)(F)F)cc1N1CCC(N2CCN(C)CC2)CC1 [Compound I-101] | – | – | – | – | – | – | 50 to 500 | ≤ 50 | 50 to 500 | ≤ 50 | 50 to 500 | ≤ 50
3 | CCc1cc(Nc2ncc(Cl)c(Nc3ccc4nccnc4c3N(C)S(=O)(=O)C(F)(F)F)n2)c(OC)cc1N1CCN(C)CC1 [Compound I-267] | – | – | – | – | – | – | 50 to 500 | 50 to 500 | 50 to 500 | 50 to 500 | 50 to 500 | 50 to 500
4 | CCc1cc(Nc2ncc(C3CC3)c(Nc3ccc4nccnc4c3N(C)S(C)(=O)=O)n2)c(OC)nc1N1CCC(N2CCN(C)CC2)CC1 [Compound I-270] | – | – | – | – | – | – | 50 to 500 | ≤ 50 | ≤ 50 | ≤ 50 | 50 to 500 | 50 to 500
5 | CCc1cc(Nc2ncc(Br)c(Nc3ccc4nccnc4c3N(C)S(=O)(=O)C(F)(F)F)n2)c(OC)cc1N1CCN(C)CC1 [Compound I-260] | – | – | – | – | – | – | 50 to 500 | 50 to 500 | 500 to 2500 | ≤ 50 | 500 to 2500 | 50 to 500
6 | COc1cc(N2CCC(N3CCN(C)CC3)CC2)c(C(C)C)cc1Nc1ncc(Br)c(Nc2ccc3nccnc3c2N(C)S(C)(=O)=O)n1 [Compound I-284] | – | – | – | – | – | – | 50 to 500 | ≤ 50 | 500 to 2500 | ≤ 50 | 50 to 500 | 50 to 500
7 | COc1cc(N2CCC(N3CCN(C)CC3)CC2)ccc1Nc1ncc(C(F)(F)F)c(Nc2ccc3nccnc3c2N(C)S(C)(=O)=O)n1 [Compound I-33] | – | – | – | – | – | – | ≤ 50 | 50 to 500 | ≤ 50 | ≤ 50 | 50 to 500 | ≤ 50
8 | CCc1cc(Nc2ncc(Cl)c(Nc3ccc4nccnc4c3N(C3CC3)S(C)(=O)=O)n2)c(OC)cc1N1CCC(N2CCN(C)CC2)CC1 [Compound I-160] | – | – | – | – | – | – | ≤ 50 | ≤ 50 | 50 to 500 | ≤ 50 | ≤ 50 | ≤ 50
9 | CCc1cc(Nc2ncc(Cl)c(Nc3ccc4nccnc4c3N(C)S(=O)(=O)C(F)(F)F)n2)c(OC)cc1N1CCC(N2CCN(C)CC2)CC1 [Compound I-130] | – | – | – | – | – | – | 50 to 500 | 50 to 500 | 50 to 500 | 50 to 500 | 50 to 500 | ≤ 50
10 | CCc1cc(Nc2ncc(Br)c(Nc3ccc4nccnc4c3N(C3CC3)S(C)(=O)=O)n2)c(OC)cc1N1CCC(N(C)C)CC1 [Compound I-157] | – | – | – | – | – | – | ≤ 50 | ≤ 50 | ≤ 50 | ≤ 50 | ≤ 50 | ≤ 50
11 | COc1nc(N2CCC(N3CCN(C)CC3)CC2)c(C)cc1Nc1ncc(Br)c(Nc2ccc3nccnc3c2N(C2CC2)S(C)(=O)=O)n1 [Compound I-306] | 50 to 500 | 500 to 2500 | 50 to 500 | 500 to 2500 | 500 to 2500 | 50 to 500 | – | – | – | – | – | –
12 | CCc1cc(Nc2ncc(C3CC3)c(Nc3ccc4nccnc4c3N(C)S(C)(=O)=O)n2)c(OC)cc1C(=O)N1CCC(N2CCN(C)CC2)CC1 [Compound I-347] | 50 to 500 | 50 to 500 | 50 to 500 | 50 to 500 | 500 to 2500 | 500 to 2500 | – | – | – | – | – | –
13 | COc1cc(N2CCC(N(C)C)C2)c(C)cc1Nc1ncc(Cl)c(Nc2ccc3nccnc3c2N(C)S(C)(=O)=O)n1 (stereo not drawn) [Compound I-173] | – | – | – | – | – | – | ≤ 50 | ≤ 50 | ≤ 50 | ≤ 50 | ≤ 50 | ≤ 50

Second part, the compound after the results:

Row | IC50 [1, 7] [nM] | IC50 [2, 8] [nM] | IC50 [3, 9] [nM] | IC50 [4, 10] [nM] | IC50 [5, 11] [nM] | IC50 [6, 12] [nM] | IC50 [1, 13] [nM] | IC50 [2, 14] [nM] | IC50 [3, 15] [nM] | IC50 [4, 16] [nM] | IC50 [5, 17] [nM] | IC50 [6, 18] [nM] | Structure (SMILES)
14 | ≤ 50 | 50 to 500 | 50 to 500 | 50 to 500 | 50 to 500 | 50 to 500 | – | – | – | – | – | – | COc1nc(N2CCC(N3CCN(C)CC3)CC2)ccc1Nc1ncc(Br)c(Nc2ccc3nccnc3c2N(C2CC2)S(C)(=O)=O)n1 [Compound I-305]
15 | – | – | – | – | – | – | ≤ 50 | ≤ 50 | ≤ 50 | ≤ 50 | ≤ 50 | ≤ 50 | COc1cc(N2CCC(N(C)C)CC2)c(C)cc1Nc1ncc(C(F)(F)F)c(Nc2ccc3nccnc3c2N(C)S(C)(=O)=O)n1 [Compound I-205]
16 | – | – | – | – | – | – | ≤ 50 | ≤ 50 | ≤ 50 | ≤ 50 | ≤ 50 | ≤ 50 | CCc1cc(Nc2ncc(Br)c(Nc3ccc4nccnc4c3N(C)S(=O)(=O)CC)n2)c(OC)cc1N1CCC(N(C)C)CC1 [Compound I-102]
17 | – | – | – | – | – | – | 500 to 2500 | 50 to 500 | 500 to 2500 | 50 to 500 | 500 to 2500 | 50 to 500 | CCc1cc(Nc2ncc(Cl)c(Nc3ccc4nccnc4c3N(C)S(=O)(=O)C(F)(F)F)n2)c(OC)nc1N1CCC(N2CCN(C)CC2)CC1 [Compound I-262]
18 | – | – | – | – | – | – | 50 to 500 | 500 to 2500 | 50 to 500 | 500 to 2500 | 500 to 2500 | 50 to 500 | CCN(c1c(Nc2nc(Nc3cc(C)c(N4CCC(N5CCN(C)CC5)CC4)nc3OC)ncc2Br)ccc2nccnc12)S(C)(=O)=O [Compound I-297]
19 | – | – | – | – | – | – | 50 to 500 | 50 to 500 | 500 to 2500 | ≤ 50 | 500 to 2500 | 50 to 500 | CCc1cc(Nc2ncc(Br)c(Nc3ccc4nccnc4c3N(C)S(=O)(=O)C(F)(F)F)n2)c(OC)cc1N1CCC(N(C)C)CC1 [Compound I-127]
20 | – | – | – | – | – | – | ≤ 50 | 50 to 500 | ≤ 50 | ≤ 50 | ≤ 50 | 50 to 500 | CCc1cc(Nc2ncc(F)c(Nc3ccc4nccnc4c3N(C)S(=O)(=O)C3CC3)n2)c(OC)cc1N1CCC(N2CCN(C)CC2)CC1 [Compound I-249]
21 | – | – | – | – | – | – | ≤ 50 | ≤ 50 | ≤ 50 | ≤ 50 | ≤ 50 | ≤ 50 | COc1cc(N2CCC(N3CCN(C)CC3)CC2)c(C)cc1Nc1ncc(Br)c(Nc2ccc3nccnc3c2N(C2CC2)S(C)(=O)=O)n1 [Compound I-154]
22 | 50 to 500 | 50 to 500 | 50 to 500 | ≤ 50 | 500 to 2500 | 50 to 500 | – | – | – | – | – | – | COc1ccc(N2CCC(O)CC2)cc1Nc1nc(Nc2ccc3nccnc3c2N(C)S(C)(=O)=O)c2sccc2n1 [II-1-45]
23 | – | – | – | – | – | – | ≤ 50 | ≤ 50 | ≤ 50 | ≤ 50 | ≤ 50 | ≤ 50 | CN1CCN(c2ccc(Nc3ncc(Br)c(Nc4ccc5nccnc5c4N(C)S(C)(=O)=O)n3)cn2)CC1 [Compound I-56]
24 | – | – | – | – | – | – | 50 to 500 | 50 to 500 | 50 to 500 | ≤ 50 | 50 to 500 | 50 to 500 | COc1cc(N2CCC(N(C)C)C2)c(C)cc1Nc1ncc([N+](=O)[O-])c(Nc2ccc3nccnc3c2N(C)S(C)(=O)=O)n1 (stereo not drawn) [Compound I-195]
25 | ≤ 50 | ≤ 50 | ≤ 50 | ≤ 50 | ≤ 50 | ≤ 50 | – | – | – | – | – | – | CCN(c1c(Nc2nc(Nc3cc(N4CCC(O)CC4)ccc3OC)ncc2Cl)ccc2nccnc12)S(C)(=O)=O [Compound I-377]
